pEC50: −log10 of the molar value.
Tested on: NL-RLuc virus (recombinant NL4-3 HIV with Renilla Luciferase gene)
Experiment: Inhibition of HIV replication (NL-RLuc virus in MT-2 cells, luciferase readout)
Type: cell-based, Human immunodeficiency virus (HIV)
Conditions: MT2, 120 h
In short: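 MT-2 cells infected with NL4-3-derived virus carrying Renilla luciferase in place of part of nef, grown 5 days with serial compound dilutions in RPMI 1640/10% FBS. Virus growth read as luciferase expression. EC50 from median effect equation, at least 2 experiments.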

SMILES: Cc1nc(C)c([C@H](OC(C)(C)C)C(=O)O)c(N2CCC(C)(C)CC2)c1-c1ccc2c(c1)CCN(c1cc(N3CCOCC3)ccn1)C2 [Example 83, (S)-2-(tert-Butoxy)-2-(4-(4,4-dimethylpiperidin-1-yl)-2,6-dimethyl-5-(2-(4-morpholinopyridin-2-yl)-1,2,3,4-tetrahydroisoquinolin-6-yl)pyridin-3-yl)acetic Acid]
- pEC50: 8.30

SMILES: Cc1ncc(-c2ccc3c(c2)CCN(c2nccc(-c4cccnc4)n2)C3)c(N2CCC(C)(C)CC2)c1[C@H](OC(C)(C)C)C(=O)O [Example 146, (S)-2-(tert-Butoxy)-2-(4-(4,4-dimethylpiperidin-1-yl)-2-methyl-5-(2-(4-(pyridin-3-yl)pyrimidin-2-yl)-1,2,3,4-tetrahydroisoquinolin-6-yl)pyridin-3-yl)acetic Acid]
- pEC50: 9.30

SMILES: Cc1nc(C)c([C@H](OC(C)(C)C)C(=O)O)c(N2CCC(C)(C)CC2)c1-c1ccc2c(c1)CCN(c1nccc(N3C4COCC3COC4)n1)C2 [Example 33, (2S)-2-(tert-Butoxy)-2-[4-(4,4-dimethylpiperidin-1-yl)-5-[2-(4-{3,7-dioxa-9-azabicyclo[3.3.1]nonan-9-yl}pyrimidin-2-yl)-1,2,3,4-tetrahydroisoquinolin-6-yl]-2,6-dimethylpyridin-3-yl]acetic Acid]
- pEC50: 8.30

SMILES: Cc1nc(C)c([C@H](OC(C)(C)C)C(=O)O)c(N2CCC(C)(C)CC2)c1-c1ccc2c(c1)CCN(c1ncc(F)c(N3CCOCC3)n1)C2 [Example 38, (2S)-2-(tert-Butoxy)-2-[4-(4,4-dimethylpiperidin-1-yl)-5-{2-[5-fluoro-4-(morpholin-4-yl)pyrimidin-2-yl]-1,2,3,4-tetrahydroisoquinolin-6-yl}-2,6-dimethylpyridin-3-yl]acetic Acid]
- pEC50: 8.52

SMILES: COc1ncccc1-c1cc(C)nc(N2CCc3cc(-c4c(C)nc(C)c([C@H](OC(C)(C)C)C(=O)O)c4N4CCC(C)(C)CC4)ccc3C2)n1 [Example 106, (S)-2-(tert-Butoxy)-2-(4-(4,4-dimethylpiperidin-1-yl)-5-(2-(4-(2-methoxypyridin-3-yl)-6-methylpyrimidin-2-yl)-1,2,3,4-tetrahydroisoquinolin-6-yl)-2,6-dimethylpyridin-3-yl)acetic Acid]
- pEC50: 8.10

SMILES: CC1(C)CCN(c2c(-c3ccc4c(c3)CCN(c3nccc(-c5cccnc5)n3)C4)cnc(Cl)c2[C@H](OC(C)(C)C)C(=O)O)CC1 [Example 149, (S)-2-(tert-Butoxy)-2-(2-chloro-4-(4,4-dimethylpiperidin-1-yl)-5-(2-(4-(pyridin-3-yl)pyrimidin-2-yl)-1,2,3,4-tetrahydroisoquinolin-6-yl)pyridin-3-yl)acetic Acid]
- pEC50: 8.70

SMILES: Cc1cccc(Cl)c1CN1CCc2cc(-c3c(NCCN(C)C)nc(C)c([C@H](OC(C)(C)C)C(=O)O)c3N3CCC(C)(C)CC3)ccc2C1 [Example 3, (S)-2-(tert-Butoxy)-2-(5-(2-(2-chloro-6-methylbenzyl)-1,2,3,4-tetrahydroisoquinolin-6-yl)-6-((2-(dimethylamino)ethyl)amino)-4-(4,4-dimethylpiperidin-1-yl)-2-methylpyridin-3-yl)acetic Acid]
- pEC50: 8.30

SMILES: Cc1nc(C)c([C@H](OC(C)(C)C)C(=O)O)c(N2CCC(C)(C)CC2)c1-c1ccc2c(c1)CCN(c1cnnc(N3CCOCC3)c1)C2 [Example 73, (S)-2-(tert-Butoxy)-2-(4-(4,4-dimethylpiperidin-1-yl)-2,6-dimethyl-5-(2-(6-morpholinopyridazin-4-yl)-1,2,3,4-tetrahydroisoquinolin-6-yl)pyridin-3-yl)acetic Acid]
- pEC50: 7.16

SMILES: CC1(C)CCN(c2c(-c3ccc4c(c3)CCN(c3ncnc5c3oc3ccccc35)C4)c(N)nc(Cl)c2[C@H](OC(C)(C)C)C(=O)O)CC1 [Example 100, (S)-2-(6-Amino-5-(2-(benzofuro[3,2-d]pyrimidin-4-yl)-1,2,3,4-tetrahydroisoquinolin-6-yl)-2-chloro-4-(4,4-dimethylpiperidin-1-yl)pyridin-3-yl)-2-(tert-butoxy)acetic Acid]
- pEC50: 8.40

SMILES: Cc1nc(CO)c([C@H](OC(C)(C)C)C(=O)O)c(N2CCC(C)(C)CC2)c1-c1ccc2c(c1)CCN(c1ncnc3c1oc1ccccc13)C2 [Example 133, (S)-2-(5-(2-(Benzofuro[3,2-d]pyrimidin-4-yl)-1,2,3,4-tetrahydroisoquinolin-6-yl)-4-(4,4-dimethylpiperidin-1-yl)-2-(hydroxymethyl)-6-methylpyridin-3-yl)-2-(tert-butoxy)acetic Acid]
- pEC50: 8.52

SMILES: Cc1nc(C)c([C@H](OC(C)(C)C)C(=O)O)c(N2CCC(C)(C)CC2)c1-c1ccc2c(c1)CCN(c1nccc(N3CCC(CCO)CC3)n1)C2 [Example 81, (S)-2-(tert-Butoxy)-2-(4-(4,4-dimethylpiperidin-1-yl)-5-(2-(4-(4-(2-hydroxyethyl)piperidin-1-yl)pyrimidin-2-yl)-1,2,3,4-tetrahydroisoquinolin-6-yl)-2,6-dimethylpyridin-3-yl)acetic Acid]
- pEC50: 8.40

SMILES: Cc1cccc(Cl)c1CN1CCc2cc(-c3c(CNCCCCCc4ccccc4)nc(C)c([C@H](OC(C)(C)C)C(=O)O)c3N3CCC(C)(C)CC3)ccc2C1 [Example 156, (S)-2-(tert-Butoxy)-2-(5-(2-(2-chloro-6-methylbenzyl)-1,2,3,4-tetrahydroisoquinolin-6-yl)-4-(4,4-dimethylpiperidin-1-yl)-2-methyl-6-(((5-phenylpentyl)amino)methyl)pyridin-3-yl)acetic Acid]
- pEC50: 7.19

SMILES: Cc1ccccc1-c1cccc(N2CCc3cc(-c4c(C)nc(C)c([C@H](OC(C)(C)C)C(=O)O)c4N4CCC(C)(C)CC4)ccc3C2)n1 [Example 88, (S)-2-(tert-Butoxy)-2-(4-(4,4-dimethylpiperidin-1-yl)-2,6-dimethyl-5-(2-(6-(o-tolyl)pyridin-2-yl)-1,2,3,4-tetrahydroisoquinolin-6-yl)pyridin-3-yl)acetic Acid]
- pEC50: 7.60

SMILES: Cc1nc(C)c([C@H](OC(C)(C)C)C(=O)O)c(N2CCC(C)(C)CC2)c1-c1ccc2c(c1)CCN(c1nccc(N3CC4CCC(C3)O4)n1)C2 [Example 30, (2S)-2-(tert-Butoxy)-2-[4-(4,4-dimethylpiperidin-1-yl)-2,6-dimethyl-5-[2-(4-{8-oxa-3-azabicyclo[3.2.1]octan-3-yl}pyrimidin-2-yl)-1,2,3,4-tetrahydroisoquinolin-6-yl]pyridin-3-yl]acetic Acid]
- pEC50: 9.00

SMILES: Cc1cccc(Cl)c1CN1CCc2cc(-c3c(CN(C)CC4CCOCC4)nc(Cl)c([C@H](OC(C)(C)C)C(=O)O)c3N3CCC(C)(C)CC3)ccc2C1 [Example 98, (S)-2-(tert-Butoxy)-2-(2-chloro-5-(2-(2-chloro-6-methylbenzyl)-1,2,3,4-tetrahydroisoquinolin-6-yl)-4-(4,4-dimethylpiperidin-1-yl)-6-((methyl((tetrahydro-2H-pyran-4-yl)methyl)amino)methyl)pyridin-3-yl)acetic Acid]
- pEC50: 9.15

SMILES: Cc1nc(C)c([C@H](OC(C)(C)C)C(=O)O)c(N2CCC(C)(C)CC2)c1-c1ccc2c(c1)CCN(c1cc(N(C)CCCN(C)C)ncn1)C2 [Example 140, (S)-2-(tert-Butoxy)-2-(5-(2-(6-((3-(dimethylamino)propyl)(methyl)amino)pyrimidin-4-yl)-1,2,3,4-tetrahydroisoquinolin-6-yl)-4-(4,4-dimethylpiperidin-1-yl)-2,6-dimethylpyridin-3-yl)acetic Acid]
- pEC50: 7.46

SMILES: Cc1nc(C)c([C@H](OC(C)(C)C)C(=O)O)c(N2CCC(C)(C)CC2)c1-c1ccc2c(c1)CCN(c1cc(-c3cccc(Cl)c3)ncn1)C2 [Example 82, (S)-2-(tert-Butoxy)-2-(5-(2-(6-(3-chlorophenyl)pyrimidin-4-yl)-1,2,3,4-tetrahydroisoquinolin-6-yl)-4-(4,4-dimethylpiperidin-1-yl)-2,6-dimethylpyridin-3-yl)acetic Acid]
- pEC50: 7.82

SMILES: Cc1nnc(-c2cc(N3CCc4cc(-c5c(C)nc(C)c([C@H](OC(C)(C)C)C(=O)O)c5N5CCC(C)(C)CC5)ccc4C3)ncn2)o1 [Example 131, (S)-2-(tert-Butoxy)-2-(4-(4,4-dimethylpiperidin-1-yl)-2,6-dimethyl-5-(2-(6-(5-methyl-1,3,4-oxadiazol-2-yl)pyrimidin-4-yl)-1,2,3,4-tetrahydroisoquinolin-6-yl)pyridin-3-yl)acetic Acid]
- pEC50: 8.40

SMILES: Cc1nc(C#N)c(-c2ccc3c(c2)CCN(c2ncnc4c2oc2ccccc24)C3)c(N2CCC(C)(C)CC2)c1[C@H](OC(C)(C)C)C(=O)O [Example 50]
- pEC50: 8.40

SMILES: CC1(C)CCN(c2c(-c3ccc4c(c3)CCN(c3nccc(N5CCOCC5)n3)C4)c(N)nc(Cl)c2[C@H](OC(C)(C)C)C(=O)O)CC1 [Example 167, (S)-2-(6-Amino-2-chloro-4-(4,4-dimethylpiperidin-1-yl)-5-(2-(4-morpholinopyrimidin-2-yl)-1,2,3,4-tetrahydroisoquinolin-6-yl)pyridin-3-yl)-2-(tert-butoxy)acetic Acid]
- pEC50: 8.40

SMILES: Cc1cccc(Cl)c1CN1CCc2cc(-c3c(NCCn4cccn4)nc(C)c([C@H](OC(C)(C)C)C(=O)O)c3N3CCC(C)(C)CC3)ccc2C1 [Example 7, (S)-2-(6-((2-(1H-Pyrazol-1-yl)ethyl)amino)-5-(2-(2-chloro-6-methylbenzyl)-1,2,3,4-tetrahydroisoquinolin-6-yl)-4-(4,4-dimethylpiperidin-1-yl)-2-methylpyridin-3-yl)-2-(tert-butoxy)acetic Acid]
- pEC50: 7.89

SMILES: Cc1nc(C)c([C@H](OC(C)(C)C)C(=O)O)c(N2CCC(C)(C)CC2)c1-c1ccc2c(c1)CCN(c1ncnc(N3CCOCC3)c1C)C2 [Example 77, (S)-2-(tert-Butoxy)-2-(4-(4,4-dimethylpiperidin-1-yl)-2,6-dimethyl-5-(2-(5-methyl-6-morpholinopyrimidin-4-yl)-1,2,3,4-tetrahydroisoquinolin-6-yl)pyridin-3-yl)acetic Acid]
- pEC50: 9.22

SMILES: Cc1nc(C)c([C@H](OC(C)(C)C)C(=O)O)c(N2CCC(C)(C)CC2)c1-c1ccc2c(c1)CCN(c1ccnc(N3CCCC3)n1)C2 [Example 20, (2S)-2-(tert-Butoxy)-2-[4-(4,4-dimethylpiperidin-1-yl)-2,6-dimethyl-5-{2-[2-(pyrrolidin-1-yl)pyrimidin-4-yl]-1,2,3,4-tetrahydroisoquinolin-6-yl}pyridin-3-yl]acetic Acid]
- pEC50: 8.70
